# Results reported in PMC4109671, “Cloning, Expression, Purification, and Characterization of Glutaredoxin from Antarctic Sea-Ice Bacterium Pseudoalteromonas sp. AN178” (BioMed Research International, 2014).
# Tested on: T1, rPsGrx
# T1 construct: gene PsGrx; active site C12-P-F-C15 (abstract prints CPYC)
# Assay: GSH-dependent HED reduction coupled to yeast glutathione reductase, NADPH consumption at […] nm; Lineweaver-Burk
# Format: biochemical, Pseudoalteromonas sp. AN178
# Settings: HED 0.4 to 8 mM, 1 mM GSH fixed, yeast GR, apparent Km, standard assay at 25°C
smiles,measurement,value
OCCSSCCO [HED],Km,460 µM
